Reference: patent EP0384661A1, “Antialgal compositions comprising diphenylethers” (ROHM AND HAAS COMPANY, priority 1989, dated 1990)
In brackets after ≈: the same amount, converted by molar mass.

How the values were obtained:
Format in all cases: cell-based
Chlorella pyrenoidosa = assay: MIC microtiter plate assay; settings: growth/no-growth after 14 or 21 days, 25°C
Protocol: (§1) Efficacy studies were conducted on a variety of microorganisms with oxyfluorfen. Minimum Inhibitory Concentration (MIC) studies were conducted using microtiter plate assays. In this method, a wide range of concentrations was tested by preparing two-fold serial dilutions of the compound in 96-well plastic microtiter plates. All liquid media transfers were performed with calibrated single or multichannel digital pipetters. Stock solutions of compounds were prepared in appropriate solvents and dispensed to the growth medium. All subsequent dilutions in plates were made using the desired growth medium. The total volume of liquid in each well was 100 ul. The pure cultures used in this study were obtained from the Culture Collection of Algae at the University of Texas at Austin (UTEX). The mixed culture of algae was obtained from a cooling tower biofilm and maintained in liquid medium; microorganisms used as inocula were cultured in shaken liquid culture (50 ml of Bristol's medium, pH 7.0, 25°C); Journal of Phycology, 23s: 1-47, 1987) for one week or as needed to attain a desired cell mass. The cultures were then inoculated into the microtiter plates using a 96-prong multiple inoculator (5 µl inoculum); each well received a standard suspension of biomass (5% inoculum). Plates were incubated at 25°C under constant illumination (500 ft candles). The extent of growth was determined under low magnification with the aid of a microtiter plate reader. The growth in each cell was monitored periodically and growth/no-growth was recorded after 14 or 21 days.

Clorococcum oleofaciens = assay: MIC microtiter plate assay; settings: growth/no-growth after 14 or 21 days, 25°C
Protocol: as §1

Nostoc commune = assay: MIC microtiter plate assay; settings: growth/no-growth after 14 or 21 days, 25°C
Protocol: as §1

[1] = test system: Phormidium luridum var. olivace; assay: MIC microtiter plate assay; settings: Drouetiella lurida; growth/no-growth after 14 or 21 days, 25°C
Protocol: as §1

Scendesmus quadricaudra = assay: MIC microtiter plate assay; settings: growth/no-growth after 14 or 21 days, 25°C
Protocol: as §1

[2] = test system: Selanastrum capricornutum; assay: MIC microtiter plate assay; settings: growth/no-growth after 14 or 21 days, 25°C
Protocol: as §1

[3] = test system: Synechococcus leopooliensis; assay: MIC microtiter plate assay; settings: growth/no-growth after 14 or 21 days, 25°C
Protocol: as §1

[4] = test system: mixed cooling tower algae; assay: Paint algicide test (latex paint on tongue depressors); design: key to 7 Days Algal Growth / 10 Days Algal Growth / 14 Days Algal Growth: 0 = No Algal Growth; 5 = Moderate Algal Growth; 10 = Heavy Algal Growth
Protocol: Solutions of oxyfluorfen were prepared as follows in 1-ounce (28.3g) glass vials. Oxyfluorfen concentrate (0.17 g) was added to 19.83 g latex paint formulation (described below) to give 2-lb oxyfluorfen/100 gal. (2 kg/833 l) paint solution; in a similar manner, 0.08 g oxyfluorfen concentrate was added to 19.92 g latex paint formulation to give 1-lb/100-gal (1 kg/833 l) solution. Oxyfluorfen concentrate (1.0 g) was added to 19.0 g mixture of 2 parts xylene/1 part cyclohexanone; 0.17 g of the resultant solution was added to 19.83 g latex paint formulation to give 0.1-lb/100-gal oxyfluorfen solution; in a similar manner, 0.016 g of xylene/cyclohexanone solution was added to 19.984 g latex paint formulation to give 0.01-lb/100-gal solution.
The solutions were stirred manually with Teflon spatulas and each was applied to two tongue depressors using #7 paint brushes. Two control tongue depressors were similarly prepared except without oxyfluorfen in the latex paint formulation. The tongue depressors were allowed to dry for one week and then inoculated with four 50 ul drops of mixed cooling tower algae (obtained from surface scrapings of industrial cooling towers and maintained in a modified Allen's media formulation, described in EXAMPLE 1).
The tongue depressors were placed on plastic stages within large petri dishes and the area around the stages was filled with deionized water. The petri dishes were covered and placed in a Precision (Model 816) low temperature (25C) illuminated incubator for one week; at this point the tongue depressors were re-inoculated with one ml of the mixed cooling tower algae and returned to the incubator. The tongue depressors where then checked daily for algal growth (visual); results are found in Part C.
Oxyfluorfen was added as a 24% emulsifiable concentrate in mixed organic solvents. The following formulation is a typical paint blend for testing of stabilization against algal activity. Texanol¿ is trimethyl-1,3-pentanediol monoisobutyrate supplied by Eastman Chemical; Rhoplex AC-64 is a commercially available latex of a copolymer of butyl acrylate and methyl methacrylate. This paint formulation has a pH of 9.4 and an initial viscosity of […] (Krebs units).

[5] = 10 ppm (0.01 lb/100-gal) in latex paint
[6] = 100 ppm (0.10 lb/100-gal) in latex paint
[7] = 1000 ppm (1.0 lb/100-gal) in latex paint
[8] = 2000 ppm (2.0 lb/100-gal) in latex paint

CCOc1cc(Oc2ccc(C(F)(F)F)cc2Cl)ccc1[N+](=O)[O-] [Oxyfluorfen, oxyfluorfen]
MIC (Chlorella pyrenoidosa): 0.125 ppm | MIC (Clorococcum oleofaciens): > 0.125 µg/mL | MIC (Nostoc commune): > 500 µg/mL | MIC [1]: > 500 µg/mL | MIC (Scendesmus quadricaudra): < 0.002 µg/mL | MIC [2]: 0.008 µg/mL (≈ 0.0221 µM) | MIC [3]: > 500 µg/mL | 7 Days Algal Growth [4, 5]: 0 | 10 Days Algal Growth [4, 5]: 2 | 14 Days Algal Growth [4, 5]: 3 | 7 Days Algal Growth [4, 6]: 0 | 10 Days Algal Growth [4, 6]: 1 | 14 Days Algal Growth [4, 6]: 1 | 7 Days Algal Growth [4, 7]: 0 | 10 Days Algal Growth [4, 7]: 0 | 14 Days Algal Growth [4, 7]: 0 | 7 Days Algal Growth [4, 8]: 0 | 10 Days Algal Growth [4, 8]: 0 | 14 Days Algal Growth [4, 8]: 0 | levels that significantly reduced the rate of algal growth ([4]; for up to 14 days, in latex paint): ≤ 10 ppm | levels that totally inhibited algal growth ([4]; in latex paint): above 100 ppm
